Assay [1] relates to brain lesions / LC function. Particulars: animal studies, literature; cited from earlier work.
Assay [2] concerns post-stroke depression and fatigue. Briefly: Case History No. 2: depression and fatigue after stroke. It is filed as in vivo, human. The conditions noted are these: person; antidepressant alone.

Structures are written as SMILES.

Here are results for four molecules from patent US6441038B1, “Treatment of fatigue, head injury and stroke” (Laxdale Limited, priority 1999, dated 2002).

On to `CNCCCN1c2ccccc2CCc2ccccc21` [desipramine], for which the “effect on LC function and recovery of motor function after brain lesions” value in assay [1] is on record as “able to enhance”. Take `CN(C)CCCN1c2ccccc2CCc2ccccc21` [imipramine]: the “effect on post-stroke depression and fatigue” value in assay [2] was “without much success”. As to `CNCCC(Oc1ccc(C(F)(F)F)cc1)c1ccccc1` (stereo not shown) [fluoxetine], in assay [2], the “effect on post-stroke depression and fatigue” value was “without much success”. With `CN(CCCN1c2ccccc2CCc2ccccc21)CC(=O)c1ccc(Cl)cc1` [lofepramine], the “effect on post-stroke depression and fatigue” value in assay [2] is on record as “without much success”.
